Source: paper PMC11299051 (Molecular informatics, 2023)

Tests used:
SARS-CoV-2 = conditions: in vivo; cited from earlier work
RdRp (Nsp12 domain) = RdRp (Nsp12 domain) (Severe acute respiratory syndrome coronavirus 2, UniProt P0DTD1); test: biochemical; format: binding, SARS-CoV-2

Row | Compound | binding to Nsp12 (in words) (RdRp (Nsp12 domain)) | also measured
1 | Cn1cnc(Cn2c(=O)[nH]/c(=N\c3cc4cn(C)nc4cc3Cl)n(Cc3cc(F)c(F)cc3F)c2=O)n1 [Ensitrelivir] | – | decrease viral clearance (SARS-CoV-2): 50 h
2 | N#C[C@@]1(c2ccc3c(N)ncnn23)O[C@H](COP(=O)(O)OP(=O)(O)OP(=O)(O)O)[C@@H](O)[C@H]1O [GS-443902] | could not detect binding | –
3 | Cc1ccc(C(=O)Nc2ccc(S(=O)(=O)O)c3cc(S(=O)(=O)O)cc(S(=O)(=O)O)c23)cc1NC(=O)c1cccc(NC(=O)Nc2cccc(C(=O)Nc3cc(C(=O)Nc4ccc(S(=O)(=O)O)c5cc(S(=O)(=O)O)cc(S(=O)(=O)O)c45)ccc3C)c2)c1 [Suramin] | – | Kd (RdRp (Nsp12 domain)): 827 ± 306 nM
4 | Cc1ccc(NC(=O)c2ccc(nc2O)C2CC2)c(O)c1 | led to Nsp12 aggregation, so no KD could be determined | –
5 | FC(F)(F)c1ccc2nnc(CNC(=O)c3ccc4 C(=O)N5CCC-CCC5=Nc4c3)n2c1 | led to Nsp12 aggregation, so no KD could be determined | –
6 | Nc1nnnn1-c1cccc(c1)C(=O)NCc1cc(F)ccc1Oc1ccc(F)c-c(Cl)c1 | led to Nsp12 aggregation, so no KD could be determined | –
